Test results: PMC6979384, “Characterization of the plant homeodomain (PHD) reader family for their histone tail interactions” (Epigenetics & Chromatin, 2020)
“Also recorded” adds a separate entry of the source.

Legend:
[1] = test system: CHD5 (PPCC); test: dCypher AlphaScreen Phase B (full peptide screen); format: binding, human; details: reader 5.2 nM, 100 nM peptide, 23 °C, n = 2
Procedure: (§1) X-axes are log(protein concentration (M)) at constant peptide concentration (100 nM); Y-axes are AlphaScreen counts, representing relative strength of binding (n = 2; error bars are S.D.). i Heat map represents relative binding to H3 N-terminal peptides (left) by PHD-containing GST-tagged proteins (top) using the dCypher AlphaScreen platform. Protein concentrations can be found in Additional file 5: Table S4. Binding strength is indicated by color gradient from green to yellow (stronger to weaker). […] Alpha counts (n = 2) were normalized individually for each protein to the highest signal for each respective assay. For full dCypher peptide screen data, see Additional file 4: Table S3
(§2) Once the optimal protein concentration ranges for each of the eight readers were determined, we conducted the full dCypher peptide screen (293 histone peptides) (Fig. 3i; Additional file 4: Table S3).
(§3) The dCypher peptide screen assay was performed as previously described. Briefly, 5 μL of GST-tagged reader domains (optimal protein concentration for library screening determined by initial binding curves to candidate peptides) were incubated with 5 μL of 400 nM (100 nM Final) biotinylated histone peptides (EpiCypher) for 30 min at 23 °C in 1× AlphaLISA Epigenetics buffer + epigenetics buffer supplement (PerkinElmer, AL1008) in a 384-well plate. A 10 μL mix of 5 µg/mL (2.5 μg/mL final) glutathione Acceptor beads (PerkinElmer, AL109M) and 10 μg/mL (5 μg/mL final) streptavidin Donor beads (PerkinElmer, 6760002) was prepared in 1× [Epigenetics buffer + supplement] and added to each well. Plates were incubated at 23 °C in subdued lighting for 60 min and AlphaLISA signal measured on a PerkinElmer 2104 EnVision (680 nm laser excitation, 570 nm emission filter ± 50 nm bandwidth).
(§4) Supplementary file 13072_2020_328_MOESM4_ESM.xlsx: Additional file 4: Table S3. dCypher Results. Excel Tab Peptide Phase A is a compiled set of binding data: chromatin reader titration vs. several peptide targets. Data is presented as raw Alpha counts in duplicates at each concentration tested. Excel Tab Peptide Phase B is a compiled set of binding data: chromatin reader at optimized concentrations vs. entire 293 peptide library. Data is presented as the average and standard deviation of duplicates. […] Key: red = strong binding; blue = weak/no binding.

[2] = test system: TRIM66 (PB); test: dCypher AlphaScreen Phase B (full peptide screen); format: binding, human; details: reader 7 nM, 100 nM peptide, 23 °C
Procedure: as §1, §2, §3, §4

[3] = test system: TAF3; test: Histone peptide microarray; format: binding, human; details: GST-tagged TAF3, sheet Array Heatmap, each array performed twice, total n = 4
Outline: (§5)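 Each reader, produced as a GST fusion and purified, was tested at 0.5 μM on synthetic histone peptides (293 in total) carrying single or combinatorial marks. Intensities averaged over four replicates.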

[4] = test system: AIRE (PP); test: Histone peptide microarray; format: binding, human; details: GST-tagged AIRE (PP), sheet Array Heatmap, each array performed twice, total n = 4
Outline: as §5

[5] = test system: DIDO1; test: Histone peptide microarray; format: binding, human; details: GST-tagged DIDO1, sheet Array Heatmap, each array performed twice, total n = 4
Outline: as §5

[6] = test system: KDM5A (3); test: Histone peptide microarray; format: binding, human; details: GST-tagged KDM5A (3), sheet Array Heatmap, each array performed twice, total n = 4
Outline: as §5

[7] = test system: BPTF (PB); test: Histone peptide microarray; format: binding, human; details: GST-tagged BPTF (PB = PHD + Bromodomain), sheet Array Heatmap, each array performed twice, total n = 4
Outline: as §5

[8] = test system: 123 annotated human PHD-containing domains; test: PHD finger domain microarray probed with biotinylated peptides (all domains); format: binding; details: for number of H3-interacting domains with preference for this state: out of 31 H3-binding domains; for binding on domain microarray: GST-PHD readers in duplicate on nitrocellulose slides, biotinylated peptide pre-labeled with streptavidin-Cy3
Source text: To define the histone binding preferences of the PHD finger proteome, we expressed and purified 123 annotated human PHD-containing domains as GST-tagged recombinant fusions from E. coli. The recombinant proteins consisted of either PHD fingers in isolation, or as tandem domains if a given PHD finger was located adjacent to another reader domain (e.g., one or more PHD fingers, Tudor, chromo and/or bromodomains) (Additional file 1: Table S1). These GST fusions were printed in duplicate on nitrocellulose-coated microarray slides and probed with biotinylated peptides that represented the N-termini of H3, H4, H2A or H2B (Fig. 1a and Additional file 2: Figure S1). As the majority of PHD readers thus far characterized are H3K4me0/3 readers, we included additional peptides (H3K4 as either mono-, di-, or trimethylated) to further determine any H3K4 methyl preference (Additional file 2: Figure S2 and Fig. 1b). As a control, we also probed these microarrays with an α-Tubulin peptide (a.a. 30–50) that would not be predicted to interact with PHD fingers (Additional file 2: Figure S1). […] We also cannot exclude the possibility that some PHD fingers might not be functionally active on the microarrays (perhaps due to misfolding or the lack of an important adjacent region).
The protein domain microarray was designed to include 123 GST-tagged PHD-domain containing recombinant proteins. Protein domain microarray development and probing was as previously. Briefly, recombinant proteins were synthesized and cloned into pGEX-4T-1 vector by Biomatik Corporation. These GST-PHD readers were subsequently expressed, purified, and spotted in duplicate onto nitrocellulose-coated glass slides (Oncyte Avid slides, Grace Bio-Labs) using a pin arrayer (Aushon 2470, Aushon). For probing, microarray slides were blocked with 3% milk, 3% bovine serum albumin, 0.1% Tween 20 in PBS. Biotinylated peptides were pre-labeled with streptavidin-Cy3 fluorophore (GE Healthcare) and incubated with the blocked array slides. Slides were then washed with PBST and allowed to air dry. Fluorescent interactions were visualized using a GenePix 4200A Microarray Scanner (Molecular Devices).

Row | binding [1] | binding on domain microarray [8] | Substance | Array Heatmap signal (histone peptide microarray) [3] | Array Heatmap signal (histone peptide microarray) [4] | Array Heatmap signal (histone peptide microarray) [5] | Array Heatmap signal (histone peptide microarray) [6] | Array Heatmap signal (histone peptide microarray) [7] | other results
1 | preference for H3K4me0/1 |  | H3 (1-20): unmodified H3 N-terminal peptide (1–20) | 0.2842 | 0.4007 | 0.7104 | 0.4935 | 0.3262 | binding ([2]; n = 2, listed as H3K4me0): preference for H3K4me0 and me1; also recorded: robust readers of H3K4me0 peptides; number of PHD-containing fusions with positive binding ([8]; of 123 PHD-containing fusions): 31; number of H3-interacting domains with preference for this state [8]: 10
2 |  | largely recognized equivalently | H3K4me2: H3 1-20 [Peptide H3K4me2] | 0.3841 | 0.5318 | 0.6829 | 0.6851 | 0.3788 | 
3 |  | largely recognized equivalently | H3K4me3: H3 1-20 [Peptide H3K4me3] | 0.3678 | 0.3854 | 0.7775 | 0.6781 | 0.3538 | number of H3-interacting domains with preference for this state [8]: 18

Further lines, the substance ahead of its results:

Row | Substance | binding [1] | binding on domain microarray [8] | Array Heatmap signal (histone peptide microarray) [3] | Array Heatmap signal (histone peptide microarray) [4] | Array Heatmap signal (histone peptide microarray) [5] | Array Heatmap signal (histone peptide microarray) [6] | Array Heatmap signal (histone peptide microarray) [7] | other results
4 | H3K4me1: H3 1-20 [Peptide H3K4me1] | preference for H3K4me0/1 | did not detect H3K4me1 to the same degree | 0.2998 | 0.5018 | 0.6429 | 0.6222 | 0.3638 | binding ([2]; n = 2): preference for H3K4me0 and me1
5 | H3K9ac: H3 1-20 [Peptide H3K9ac] |  |  |  |  |  |  |  | Array Heatmap signal (histone peptide microarray) ([3]; listed as 2): 0.3565; Array Heatmap signal (histone peptide microarray) ([3]; listed as 3): 0.3052; Array Heatmap signal (histone peptide microarray) ([4]; listed as 2): 0.4059; Array Heatmap signal (histone peptide microarray) ([4]; listed as 3): 0.3893; Array Heatmap signal (histone peptide microarray) ([5]; listed as 2): 0.6642; Array Heatmap signal (histone peptide microarray) ([5]; listed as 3): 0.7409; Array Heatmap signal (histone peptide microarray) ([6]; listed as 2): 0.6003; Array Heatmap signal (histone peptide microarray) ([6]; listed as 3): 0.6283; Array Heatmap signal (histone peptide microarray) ([7]; listed as 2): 0.3339; Array Heatmap signal (histone peptide microarray) ([7]; listed as 3): 0.3268
6 | H3K9me3: H3 1-20 [Peptide H3K9me3] | ability to bind to the peptides containing H3K9me3 |  | 0.2799 | 0.4645 | 0.7537 | 0.563 | 0.3464 | binding ([2]; n = 2): ability to bind to the peptides containing H3K9me3
7 | H3S10p: H3 1-20 [Peptide H3S10p] |  |  | 0.3504 | 0.7118 | 0.6622 | 0.4717 | 0.3684 | 
